Test results published in US10555987B2, “GHRH agonists for the treatment of ischemic disorders” (UNIVERSITY OF MIAMI, priority 2012, dated 2020).
Non-standard residues stand in square brackets, D forms with d. Residues, ends and D or L forms follow the SMILES beside them. ξ: configuration not given here. NMeY = CN[C@@H](Cc1ccc(O)cc1)C(=O)O; Nle = CCCC[C@H](N)C(=O)O; Orn = NCCC[C@H](N)C(=O)O; Abu = CC[C@H](N)C(=O)O; Ava = NCCCCC(=O)O; GABA = NCCCC(=O)O; ξA = CC(N)C(=O)O

Tests used:
GHRH receptor = target: T1, GHRH receptor (Homo sapiens, UniProt Q02643); test: GHRH receptor binding, competition with 125I-labeled JV-1-42, human pituitary membrane homogenates (Table 7); parameters: Normal human pituitaries were purchased from the National Hormone and Peptide Program; tissue National Hormone and Peptide Program (A.F. Parlow, Harbor-UCLA Medical Center, Torrance, Calif.); host or cells: normal human pituitary, membrane fraction; conditions: JI-38 = 1, Table 7
T1 sequence (Q02643 23-423): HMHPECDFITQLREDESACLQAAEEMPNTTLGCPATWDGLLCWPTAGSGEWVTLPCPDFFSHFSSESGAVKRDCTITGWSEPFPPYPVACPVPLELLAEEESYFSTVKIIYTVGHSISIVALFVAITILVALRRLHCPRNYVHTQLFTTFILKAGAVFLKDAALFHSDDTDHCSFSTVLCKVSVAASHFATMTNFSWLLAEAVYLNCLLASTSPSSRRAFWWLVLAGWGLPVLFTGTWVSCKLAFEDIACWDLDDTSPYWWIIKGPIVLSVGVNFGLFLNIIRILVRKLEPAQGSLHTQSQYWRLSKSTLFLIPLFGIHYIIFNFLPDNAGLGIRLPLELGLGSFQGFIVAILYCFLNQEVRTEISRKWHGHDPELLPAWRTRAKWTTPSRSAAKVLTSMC
Text: Normal human pituitaries were purchased from the National Hormone and Peptide Program (A.F. Parlow, Los Angeles, County Harbor-UCLA Medical Center, Torrance, Calif.).

GH release = test: In vivo endocrine activity, GH release after subcutaneous administration (Table 9); conditions: rat; for GH releasing potency relative to JI-38 (=1): subcutaneous (s.c.) injection
Method: Subcutaneous Administration. Adult male rats were used and anesthetized with pentobarbital (6 mg/100 g, b.w.), by i.p. injection. […] Blood samples were taken from the jugular vein 5, 15 and/or 30 minutes after the injection. The blood samples were centrifuged, plasma was removed and the GH level was measured byELISA. The results are summarized in terms of potency in Table 9.

| Structure (SMILES) | Relative affinity (Binding potency) vs JI-38 (GHRH receptor) | GH releasing potency relative to JI-38 (=1) (GH release; 5 min after) | GH releasing potency relative to JI-38 (=1) (GH release; 15 min after) | GH releasing potency relative to JI-38 (=1) (GH release; 30 min after) | Stimulation of growth hormone levels after subcutaneous administration (in words) (GH release; s.c.) |
| --- | --- | --- | --- | --- | --- |
| CCCC[C@H](NC(=O)[C@@H](NC(=O)[C@H](CC(=O)O)NC(=O)[C@H](CCC(N)=O)NC(=O)[C@H](CC(C)C)NC(=O)[C@H](CC(C)C)NC(=O)[C@H](CCCN)NC(=O)[C@H](CCCNC(=N)N)NC(=O)[C@H](C)NC(=O)[C@H](CO)NC(=O)[C@H](CC(C)C)NC(=O)[C@H](CCC(N)=O)NC(=O)[C@H](CC)NC(=O)[C@H](CC(C)C)NC(=O)[C@@H](NC(=O)[C@H](CCCN)NC(=O)[C@H](CCCNC(=N)N)NC(=O)[C@H](Cc1ccc(O)cc1)NC(=O)[C@H](CO)NC(=O)[C@H](CCC(N)=O)NC(=O)[C@@H](NC(=O)[C@H](Cc1ccccc1)NC(=O)[C@@H](NC(=O)[C@H](C)NC(=O)[C@H](CC(=O)O)NC(=O)C(C)NC(=O)[C@H](Cc1ccc(O)cc1)NC)[C@@H](C)CC)[C@@H](C)O)C(C)C)[C@@H](C)CC)C(=O)N[C@@H](CC(=O)O)C(=O)N[C@@H](CCCNC(=N)N)C(=O)NCCCCC(N)=O (stereo partly shown) [Peptide P-22325, [N—Me-Tyr^1, Gln^8, Orn^12, Abu^15, Orn^21, Nle^27, Asp^28, Apa^30]hGHRH (1-30)NH2] (H-[NMeY][ξA]DAIFTQSYR[Orn]VL[Abu]QLSAR[Orn]LLQDI[Nle]DR[Ava]-NH2) | 1.14 | 0.33 | 0.68 | 1.03 |  |
| CCCC[C@H](NC(=O)[C@@H](NC(=O)[C@H](CC(=O)O)NC(=O)[C@H](CCC(N)=O)NC(=O)[C@H](CC(C)C)NC(=O)[C@H](CC(C)C)NC(=O)[C@H](CCCN)NC(=O)[C@H](CCCNC(=N)N)NC(=O)[C@H](C)NC(=O)[C@H](CO)NC(=O)[C@H](CC(C)C)NC(=O)[C@H](CCC(N)=O)NC(=O)[C@H](CC)NC(=O)[C@H](CC(C)C)NC(=O)[C@@H](NC(=O)[C@H](CCCN)NC(=O)[C@H](CCCNC(=N)N)NC(=O)[C@H](Cc1ccc(O)cc1)NC(=O)[C@H](CO)NC(=O)[C@H](CC(N)=O)NC(=O)[C@@H](NC(=O)[C@H](Cc1ccccc1)NC(=O)[C@@H](NC(=O)[C@H](C)NC(=O)[C@H](CC(=O)O)NC(=O)[C@@H](C)NC(=O)[C@H](Cc1ccc(O)cc1)NC)[C@@H](C)CC)[C@@H](C)O)C(C)C)[C@@H](C)CC)C(=O)N[C@@H](CO)C(=O)N[C@@H](CCCNC(=N)N)C(=O)NCCCC(N)=O [Peptide P-25501, [N—Me-Tyr^1, D-Ala^2, Orn^12, Abu^15, Orn^21, Nle^27, Gab^30]hGHRH(1-30)NH2] (H-[NMeY][dA]DAIFTNSYR[Orn]VL[Abu]QLSAR[Orn]LLQDI[Nle]SR[GABA]-NH2) | 4.07 | 1.40 | 1.36 | 1.63 | stimulated greater growth hormone levels than hGHRH or JI-38 |
| CCCC[C@H](NC(=O)[C@@H](NC(=O)[C@H](CC(=O)O)NC(=O)[C@H](CCC(N)=O)NC(=O)[C@H](CC(C)C)NC(=O)[C@H](CC(C)C)NC(=O)[C@H](CCCN)NC(=O)[C@H](CCCNC(=N)N)NC(=O)[C@H](C)NC(=O)[C@H](CO)NC(=O)[C@H](CC(C)C)NC(=O)[C@H](CCC(N)=O)NC(=O)[C@H](CC)NC(=O)[C@H](CC(C)C)NC(=O)[C@@H](NC(=O)[C@H](CCCN)NC(=O)[C@H](CCCNC(=N)N)NC(=O)[C@H](Cc1ccc(O)cc1)NC(=O)[C@H](CO)NC(=O)[C@H](CC(N)=O)NC(=O)[C@@H](NC(=O)[C@H](Cc1ccccc1)NC(=O)[C@@H](NC(=O)[C@H](C)NC(=O)[C@H](CC(=O)O)NC(=O)[C@H](CC)NC(=O)[C@H](Cc1ccc(O)cc1)NC)[C@@H](C)CC)[C@@H](C)O)C(C)C)[C@@H](C)CC)C(=O)N[C@@H](CO)C(=O)N[C@@H](CCCNC(=N)N)C(=O)NCCCC(N)=O [Peptide P-25503, [N—Me-Tyr^1, Abu^2, Orn^12, Abu^15, Orn^21, Nle^27, Gab^30]hGHRH(1-30)NH2] (H-[NMeY][Abu]DAIFTNSYR[Orn]VL[Abu]QLSAR[Orn]LLQDI[Nle]SR[GABA]-NH2) | 3.67 | 0.55 | 0.64 | 0.63 |  |
